The text below walks through data of US5707815A, “Mammalian monocyte chemoattractant protein receptors and assays using them” (Regents of the University of California, priority 1995, dated 1998).

The subject of experiment [1] is human erythroleukemia (HEL) cells. Kind of experiment: MCP-1 induced calcium flux in HEL cells. Type of experiment: cell-based. The protocol:
Because monocytes are difficult to isolate in usable quantity and express less than 2000 high affinity MCP-1 binding sites per cell, a cultured cell line that responded well to MCP-1 had to be identified. Using the calcium effiux assay as described in Vu, Cell 64:1057-68(1991), MCP-1 induced calcium fluxes in various cell lines were measured. […] In contrast, a dose-dependent calcium flux was detected in MM6 cells, with half maximal stimulation at 4nM MCP-1.
A general note: A change in cytosolic calcium serves as a functional read-out for many receptors and channels.

Another experiment has as its system MCP-1 receptor. The experiment in a line: Total inositol phosphate accumulation in MCP-1 receptor transfected 293 cells. Type of experiment: cell-based, human. To be noted: 293 cells stably expressing recombinant MCP-1 receptor. Here is the method:
Inositol (1,4,5)-triphosphate (IP3) mobilizes intracellular calcium in response to activation of a wide spectrum of receptors, including many seven-transmembrane-domain receptors. Hung, J. Ceil. Biol. 116:827-32 (1992); Putney, Trends Endocrinol. Metab. 5:256-60 (1994). To investigate this mobilization, total inositol phosphate accumulation was determined as described in Hung, J. Cell Biol. 116:827-32 (1992). HEK-293 cells were grown until confluent in 24-well tissue culture dishes and labeled overnight with 2 uCi/ml [^3 H]myo-inositol (23 Ci/mmol) (New England Nuclear, Boston, Mass.) in inositol-free MEM-EBSS supplemented with 10% dialyzed FCS. Following labeling, the media were removed and the cells were incubated at room temperature for 5-10 min in 0.5 ml of serum-free MEM-EBSS media supplemented with 10 mM HEPES, 1 mg/ml BSA, and 10 mM LiCl. […] The incubation was terminated by removal of the incubation media and addition of 1 ml of ice-cold 20 mM formic acid. Plates were incubated at 4° C. for 30 min before the supernatants were applied to 1-ml Dowex AG1-X8 (100-200 mesh, formate form, from Sigma) chromatography columns. Columns were washed with 8 ml of water followed by 5 ml of 40 mM sodium formate. Total [^3 H]inositol phosphates were eluted with 5 ml of 2M ammonium formate/0.1M formic acid and quantitated by liquid scintillation spectroscopy. […]

As to “monocyte chemoattractant protein-1 [MCP-1]”, the “MCP-1 induced calcium flux” value in experiment [1] is given as “No calcium flux was detected”. In addition, the “hydrolysis of PI (phosphatidylinositol)” value in the experiment on MCP-1 receptor is “little, if any”.
